Results from patent publication US6420147B1, “Haloalkaliphilic microorganisms” (Genencor International, Inc., priority 1991, dated 2002).

Tests used:
Strain 931LM.4 = experiment: Antibiotic sensitivity (susceptibility test disks on Medium A agar); format: cell-based; conditions: antibiotic disks (contents in Appendix C), 37° C., up to 14 days
Method: (§1) A light suspension of bacteria in alkaline, saline, nutrient broth was spread on the surface of alkaline nutrient, saline agar (Medium A) and allowed to dry. Commercially available antibiotic susceptibility test disks (Oxoid or Mast Laboratories: Merseyside, U.K.) were applied to the agar surface. The bacteria were cultivated at 37° C. for up to 14 days. Clear zones around the antibiotic disks indicated sensitivity and were recorded as positive.

Strain 103Nt.4 = experiment: as above; format: cell-based; conditions: antibiotic disks (contents in Appendix C), 37° C., up to 14 days
Method: as §1

Strain 95LM.4 = experiment: as above; format: cell-based; conditions: antibiotic disks (contents in Appendix C), 37° C., up to 14 days
Method: as §1

Strain 93dLM.4 = experiment: as above; format: cell-based; conditions: antibiotic disks (contents in Appendix C), 37° C., up to 14 days
Method: as §1

Strain 98Nt.4 = experiment: as above; format: cell-based; conditions: antibiotic disks (contents in Appendix C), 37° C., up to 14 days
Method: as §1

Strain 86M.4 = experiment: as above; format: cell-based; conditions: antibiotic disks (contents in Appendix C), 37° C., up to 14 days
Method: as §1

Strain 31M.4 = experiment: as above; format: cell-based; conditions: antibiotic disks (contents in Appendix C), 37° C., up to 14 days
Method: as §1

[1] = tested on: Cluster 2 haloalkaliphilic bacteria; experiment: Antibiotic sensitivity, distribution of positive characters; format: cell-based; conditions: share of strains of cluster 2 (78.5% similarity level, SSM) scored positive = clear zone around antibiotic disk; Medium A agar, 37° C., up to 14 days
Method: as §1

[2] = tested on: Cluster 1 haloalkaliphilic bacteria; experiment: as above; format: cell-based; conditions: share of strains of cluster 1 (78.5% similarity level, SSM) scored positive = clear zone around antibiotic disk; Medium A agar, 37° C., up to 14 days
Method: as §1

[3] = tested on: Cluster 4 haloalkaliphilic bacteria; experiment: as above; format: cell-based, haloalkaliphilic eubacteria; conditions: share of strains of cluster 4 (78.5% similarity level, SSM) scored positive = clear zone around antibiotic disk; Medium A agar, 37° C., up to 14 days
Method: as §1

[4] = tested on: Cluster 3 haloalkaliphilic bacteria; experiment: as above; format: cell-based, haloalkaliphilic eubacteria; conditions: share of strains of cluster 3 (78.5% similarity level, SSM) scored positive = clear zone around antibiotic disk; Medium A agar, 37° C., up to 14 days
Method: as §1

| Structure (SMILES) | Inhibition of growth by antibiotic (Strain 931LM.4) | Inhibition of growth by antibiotic (Strain 103Nt.4) | Inhibition of growth by antibiotic (Strain 95LM.4) | Inhibition of growth by antibiotic (Strain 93dLM.4) | Inhibition of growth by antibiotic (Strain 98Nt.4) | Inhibition of growth by antibiotic (Strain 86M.4) | Inhibition of growth by antibiotic (Strain 31M.4) | Distribution of positive characters: antibiotic sensitivity, Cluster 2 [1] | Distribution of positive characters: antibiotic sensitivity, Cluster 1 [2] | Distribution of positive characters: antibiotic sensitivity, Cluster 4 [3] | Distribution of positive characters: antibiotic sensitivity, Cluster 3 [4] |
| --- | --- | --- | --- | --- | --- | --- | --- | --- | --- | --- | --- |
| CC1(C)S[C@@H]2[C@H](NC(=O)[C@H](N)c3ccccc3)C(=O)N2[C@H]1C(=O)O [ampicillin] | inhibited | inhibited | inhibited | inhibited | not inhibited | not inhibited | inhibited | 0 | 0 | 67 | 100 |
| CC[C@H]1OC(=O)[C@H](C)[C@@H](O[C@H]2C[C@@](C)(OC)[C@@H](O)[C@H](C)O2)[C@H](C)[C@@H](O[C@@H]2O[C@H](C)C[C@H](N(C)C)[C@H]2O)[C@](C)(O)C[C@@H](C)C(=O)[C@H](C)[C@@H](O)[C@]1(C)O [erythromycin] | inhibited | not inhibited | inhibited | inhibited | inhibited | inhibited | inhibited | 73 | 86 | 100 | 100 |
| CO[C@@H]1[C@@H](OC(N)=O)[C@@H](O)[C@H](Oc2ccc3c(O)c(NC(=O)c4ccc(O)c(CC=C(C)C)c4)c(=O)oc3c2C)OC1(C)C [novobiocin] | inhibited | inhibited | inhibited | inhibited | inhibited | inhibited | inhibited | 82 | 100 | 100 | 33 |
| [H]/N=C(/N)N[C@H]1[C@H](O)[C@@H](O)[C@H](O[C@@H]2O[C@@H](C)[C@](O)(C=O)[C@H]2O[C@@H]2O[C@@H](CO)[C@H](O)[C@@H](O)[C@@H]2NC)[C@@H](N/C(N)=N\[H])[C@@H]1O [streptomycin] | inhibited | inhibited | not inhibited | not inhibited | not inhibited | not inhibited | inhibited | 18 | 0 | 0 | 67 |
